In patent US7705010B2, “Use of minoxidil sulfate as an anti-tumor drug” (Cedars-Sinai Medical Center, priority 2005, dated 2010):
Where a name gives a salt, the structure may show the parent alone. Read-outs that look alike come from different tables or passages of the source.

Key:
[1] = system: MDA-231 Breast Cancer; experiment: WST-1 cytotoxic screening, MDA-231 Breast Cancer; format: cell-based; conditions: read-out: Effective concentration for 50% cell death (EC50)
Description: (§1) Thus, the inventors examined the in vitro effect of several ATP-dependent potassium channel agonists on cell viability in a wide range of tumor and normal cells.
(§2) Table 1 depicts the in vitro effect of KATP channel agonists on cell viability in a range of tumor and normal cells. The cytotoxic screening assay (WST-1 assay; Roche Diagnostics) results shown are the effective KATP channel agonist concentration (μM) required for 50% cell death (EC50) after exposure to the same for 24 hours. Indicated percentages are the percent viable cells remaining after treatment with 1000 μM of KATP channel agonists.

[2] = system: HT-29 human colon cancer; experiment: WST-1 cytotoxic screening, HT-29 Colon Cancer; conditions: for EC50: read-out: Effective concentration for 50% cell death (EC50)
Description: as §1, §2

[3] = system: CRL5904 NSC Lung Cancer; experiment: WST-1 cytotoxic screening, CRL5904 NSC Lung Cancer; conditions: for EC50: read-out: Effective concentration for 50% cell death (EC50); for viability at 1000 µM: read-out: percentage of viable cells remaining
Description: as §1, §2

[4] = system: HBMVEC Endothelial; experiment: WST-1 cytotoxic screening, HBMVEC Endothelial; conditions: read-out: Effective concentration for 50% cell death (EC50)
Description: as §1, §2

[5] = system: GL-26 Glioma; experiment: cells; conditions: read-out: Effective concentration for 50% cell death (EC50)
Description: as §1, §2

[6] = system: U87 human glioma; experiment: WST-1 cytotoxic screening, U87 Glioma; conditions: for EC50: read-out: Effective concentration for 50% cell death (EC50)
Description: as §1, §2

[7] = system: RG2 Glioma; experiment: WST-1 cytotoxic screening, RG2 Glioma; conditions: for EC50: read-out: Effective concentration for 50% cell death (EC50)
Description: as §1, §2

[8] = system: unmodified GL26 cells; experiment: GL26 drug cytotoxicity screens; format: cell-based, murine; conditions: drug 125-1000 μM, read-out: EC50 (concentrations giving 50% killing)
Description: GL26 drug cytotoxicity (EC50, concentrations giving 50% killing) screens were performed with the results depicted in Table 2.

[9] = system: DNTC-1 Astrocytes; experiment: WST-1 cytotoxic screening, DNTC-1 Astrocytes; format: cell-based; conditions: Astrocyte, treatment for 24 hours, read-out: Effective concentration for 50% cell death (EC50)
Description: as §1, §2

[10] = system: C6 rat glioma; experiment: WST-1 cytotoxic screening, C6 Glioma; conditions: for EC50: 24 h, read-out: Effective concentration for 50% cell death (EC50)
Description: as §1, §2

[11] = system: 9L Glioma; experiment: WST-1 cytotoxic screening, 9L Glioma; format: cell-based; conditions: for EC50: treatment for 24 hours, read-out: Effective concentration for 50% cell death (EC50)
Description: as §1, §2

[12] = system: GL26 glioma; experiment: Survival of mice with intracranial GL26 glioma; format: in vivo; conditions: for survival, C57BL/6 (WT) relative to nu/nu mice: 2.7 mg/kg days 7-9 after GL26 implantation, log-rank; for survival: 2.7 mg/kg i.v. days 7-9 after intracranial GL26 implantation, 2.7 mg/kg
Description: FIG. 1 depicts T cell-induced chemosensitization of murine glioma in accordance with an embodiment of the present invention. Fifty thousand (50,000) GL26 tumor cells in […] 1% methylcellulose were implanted i.c. into anesthetized female C57BL/6J (black lines) or nu/nu (gray lines) mice aged 6-8 weeks using a stereotactic rodent frame. Injection was 1 mm posterior and 2.5 mm lateral to the junction of the coronal and saggital sutures (bregma), at a depth of 2 mm. Vaccinated mice received 2, subcutaneous injections of 2×106 tumor lysate-pulsed, irradiated cultured DC2.4 dendritic cells in […] sterile PBS as vaccine on day 3 and 7 post tumor implantation, and a chemotherapeutic drug (dosage: 2.7 mg/kg minoxidil sulfate) was administered on days 7, 8, and 9 post tumor implantation. […] Survival differences were assessed by log-rank statistics.
FIGS. 2a and 2b depicts survival rates of mice treated with minxodil sulfate in accordance with an embodiment of the present invention. Survival of Nude (nu; gray) and C57BL/6 (WT) mice with (solid black) or without (dotted black) vaccination, treated 7-9 days after intracranial GL26 glioma implantation with vehicle (DMSO) or minoxidil sulfate (MS, 2.7 mg/kg in 50 μl, i.v.). Vaccinated mice were injected subcutaneously with […] tumor lysate-pulsed syngeneic DC2.4 dendritic cells 3 and 7 days after GL26 implantation.
GL26 glioma cells were implanted intracranially into T cell-deficient (nude) or syngeneic wild-type (C57BI/6) mice, which were treated with a chemotherapeutic drug alone or with vaccination using GL26 lysate-pulsed DC2.4 dendritic cells. […] (FIG. 1).
Chemosensitivity was modeled by growth of the GL26 glioma in syngeneic C57BL/6 (B6), vaccinated B6, and T cell-deficient nude mice. Tumor implantation was followed by chemotherapeutic drug treatment and/or DC vaccination.

[13] = WST-1 cytotoxic screening, HBMVEC Endothelial; conditions: human, HBMVEC endothelial cells (non-cancer)
Description: as §1, §2

[14] = Homo sapiens, MDA-MB-231, treatment for 24 hours

In the case of `CC1(C)Oc2ccc(S(=O)(=O)Nc3ccccc3)cc2[C@@H](N2CCCCC2=O)[C@@H]1O` [KCO912], the EC50 ([1]; treatment for 24 hours) is reported as 126 µM, the EC50 ([2]; HT-29 Colon Cancer, treatment for 24 hours) is reported as greater than 1000 µM and the EC50 ([3]; CRL5904 NSC Lung Cancer, treatment for 24 hours) is reported as greater than 1000 µM. For the same compound, the EC50 ([4]; HBMVEC Endothelial, treatment for 24 hours) was greater than 1000 µM, the EC50 ([5]; GL-26 Glioma, treatment for 24 hours) was greater than 1000 µM and the EC50 ([6]; U87 Glioma, treatment for 24 hours) was greater than 1000 µM. It also gave an EC50 ([7]; RG2 Glioma, treatment for 24 hours) greater than 1000 µM.
For `N.N.O=C([O-])C1(C(=O)[O-])CCC1.[Pt+2]` [Carboplatin], the EC50 [8] was 310 µM.
With `Nc1cc(N2CCCCC2)nc(N)[n+]1OS(=O)(=O)[O-]` [Minoxidil Sulfate, minoxidil sulfate] the EC50 [1, 14] was 930 µM, the EC50 [9] was 110 µM and the “effectiveness as a cytotoxic agent” value ([10]; C6 rat glioma, WST-1 assay) was “highly effective”. The EC50 ([10]; Rattus norvegicus, C6 glioma) was 130 µM, the viability at 1000 µM ([11]; after treatment with 1000 μM, read-out: percentage of viable cells remaining) was 51% and the EC50 [11] was greater than 1000 µM. For the same compound, the “survival, C57BL/6 (WT) relative to nu/nu mice” value [12] was “increased survival”, the “survival, C57BL/6 (WT) relative to nu/nu mice” value ([12]; listed as MS) was “significantly increased” and the survival ([12]; T cell-deficient nude (nu/nu) hosts) was “not in nude hosts”. The survival ([12]; T cell-deficient nude (nu/nu) hosts, listed as MS) was “increased survival only in WT hosts”, the survival ([12]; wild-type C57BL/6 hosts, with or without DC vaccination) was “prolonged survival in B6” and the survival ([12]; wild-type C57BL/6 hosts, with or without DC vaccination, listed as MS) was “increased survival”. The survival ([12]; wild-type C57BL/6 hosts, with or without DC vaccination, listed as Minoxidil sulfate) was “enhanced survival”, the “effectiveness as a cytotoxic agent” value ([2]; HT-29 human colon cancer, WST-1 assay) was “highly effective” and the EC50 ([2]; Homo sapiens, HT-29, 24 h) was 360 µM. For the same compound, the EC50 ([3]; 24 h) was greater than 1000 µM, the viability at 1000 µM [3] was 89% and the EC50 ([4]; 24 h) was greater than 1000 µM. The viability at 24 h, 1000 μM [13] was 84%, the EC50 ([5]; Mus musculus, GL26, 24 h) was 595 µM and the EC50 ([6]; Homo sapiens, U-87 MG, 24 h) was 308 µM. For the same compound, the “effectiveness as a cytotoxic agent” value ([6]; U87 human glioma, WST-1 assay) was “highly effective”, the EC50 ([8]; Mus musculus) was 595 µM and the EC50 ([7]; Rattus norvegicus, RG2, 24 h) was 810 µM.
Compound `Cn1nnc2c(C(N)=O)ncn2c1=O` [Temodar] has an EC50 ([8]; Mus musculus) greater than 1000 µM.
Compound `COc1cccc2c1C(=O)c1c(O)c3c(c(O)c1C2=O)C[C@@](O)(C(=O)CO)C[C@@H]3O[C@H]1C[C@H](N)[C@H](O)[C@H](C)O1` [Adriamycin] has an EC50 ([8]; Mus musculus) of less than 125 µM.
With `CN(Cc1cnc2nc(N)nc(N)c2n1)c1ccc(C(=O)N[C@@H](CCC(=O)O)C(=O)O)cc1` [Methotrexate] the EC50 ([8]; Mus musculus) was greater than 1000 µM.
Work on `CC(N/C(=N\C#N)Nc1ccncc1)C(C)(C)C` (stereo not drawn) [Pinacidil, pinacidil] yielded an EC50 [1, 14] of 220 µM, an EC50 ([10]; Rattus norvegicus, C6 glioma) greater than 1000 µM and a viability at 1000 µM ([10]; Rattus norvegicus, C6 glioma, read-out: percentage of viable cells remaining) of 93%. The EC50 [11] was 790 µM, the EC50 ([2]; Homo sapiens, HT-29, 24 h) was greater than 1000 µM and the viability at 1000 µM ([2]; Homo sapiens, HT-29, read-out: percentage of viable cells remaining) was 74%. It also gave an EC50 ([3]; 24 h) greater than 1000 µM, a viability at 1000 µM [3] of 79.5% and an EC50 ([4]; 24 h) greater than 1000 µM. It also gave a viability at 24 h, 1000 μM [13] of 106%, an EC50 ([5]; Mus musculus, GL26, 24 h) of 210 µM and an EC50 ([6]; Homo sapiens, U-87 MG, 24 h) greater than 1000 µM. The viability at 1000 µM ([6]; Homo sapiens, U-87 MG, read-out: percentage of viable cells remaining) was 77%, the EC50 ([8]; Mus musculus) was 210 µM and the EC50 ([7]; Rattus norvegicus, RG2, 24 h) was greater than 1000 µM. It also gave a viability at 1000 µM ([7]; Rattus norvegicus, RG2, read-out: percentage of viable cells remaining) of 69%.
